Experiments:
Experiment in all cases: KinaseProfiler Assay
Type in all cases: biochemical
Ron = Ron (Homo sapiens, UniProt Q04912); settings: read-out: Ron, % of Control
CHK1 = molecular target: T1, CHK1 (Homo sapiens, UniProt O14757); settings: read-out: CHK1, % of Control
T1 sequence (O14757 1-476): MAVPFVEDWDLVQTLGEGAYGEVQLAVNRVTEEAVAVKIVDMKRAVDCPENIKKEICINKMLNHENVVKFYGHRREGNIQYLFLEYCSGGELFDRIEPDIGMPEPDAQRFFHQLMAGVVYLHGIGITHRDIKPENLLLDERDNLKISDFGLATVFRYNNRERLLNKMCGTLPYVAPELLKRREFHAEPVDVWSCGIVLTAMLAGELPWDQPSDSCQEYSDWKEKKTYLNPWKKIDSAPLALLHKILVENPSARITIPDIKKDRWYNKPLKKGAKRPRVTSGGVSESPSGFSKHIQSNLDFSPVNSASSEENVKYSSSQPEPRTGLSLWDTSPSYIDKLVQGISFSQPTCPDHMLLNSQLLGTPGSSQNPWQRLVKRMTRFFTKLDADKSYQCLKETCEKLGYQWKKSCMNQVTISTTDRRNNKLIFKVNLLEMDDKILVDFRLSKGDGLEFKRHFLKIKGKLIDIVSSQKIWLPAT

MSK1 = MSK1 (Homo sapiens, UniProt O75582); settings: read-out: MSK1, % of Control
Tie2 = Tie2 (Homo sapiens, UniProt Q02763); settings: 50 ug/ml; read-out: Tie2, % of Control
PKBγ = PKBγ (Homo sapiens, UniProt Q9Y243); settings: read-out: PKBγ, % of Control
DRAK1 = molecular target: T2, DRAK1 (Homo sapiens, UniProt Q9UEE5); settings: read-out: DRAK1, % of Control
T2 sequence (Q9UEE5 1-414): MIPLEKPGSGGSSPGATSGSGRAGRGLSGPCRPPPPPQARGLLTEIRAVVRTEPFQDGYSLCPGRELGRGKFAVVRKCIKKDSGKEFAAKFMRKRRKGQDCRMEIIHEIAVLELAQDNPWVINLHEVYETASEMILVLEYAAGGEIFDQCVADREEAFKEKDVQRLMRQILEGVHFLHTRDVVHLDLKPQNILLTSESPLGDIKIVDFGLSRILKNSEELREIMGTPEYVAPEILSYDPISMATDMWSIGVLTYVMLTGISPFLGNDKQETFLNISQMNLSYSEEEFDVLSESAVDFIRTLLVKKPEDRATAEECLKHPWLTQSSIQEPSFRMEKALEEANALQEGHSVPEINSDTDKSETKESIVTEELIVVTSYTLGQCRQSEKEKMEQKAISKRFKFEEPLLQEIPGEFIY

PAK6 = PAK6 (Homo sapiens, UniProt Q9NQU5); settings: read-out: PAK6, % of Control
Rsk2 = Rsk2 (Homo sapiens, UniProt P51812); settings: read-out: Rsk2, % of Control
Syk = Syk (Homo sapiens, UniProt P43405); settings: read-out: Syk, % of Control

Rsk2, sequence (P51812 whole entry): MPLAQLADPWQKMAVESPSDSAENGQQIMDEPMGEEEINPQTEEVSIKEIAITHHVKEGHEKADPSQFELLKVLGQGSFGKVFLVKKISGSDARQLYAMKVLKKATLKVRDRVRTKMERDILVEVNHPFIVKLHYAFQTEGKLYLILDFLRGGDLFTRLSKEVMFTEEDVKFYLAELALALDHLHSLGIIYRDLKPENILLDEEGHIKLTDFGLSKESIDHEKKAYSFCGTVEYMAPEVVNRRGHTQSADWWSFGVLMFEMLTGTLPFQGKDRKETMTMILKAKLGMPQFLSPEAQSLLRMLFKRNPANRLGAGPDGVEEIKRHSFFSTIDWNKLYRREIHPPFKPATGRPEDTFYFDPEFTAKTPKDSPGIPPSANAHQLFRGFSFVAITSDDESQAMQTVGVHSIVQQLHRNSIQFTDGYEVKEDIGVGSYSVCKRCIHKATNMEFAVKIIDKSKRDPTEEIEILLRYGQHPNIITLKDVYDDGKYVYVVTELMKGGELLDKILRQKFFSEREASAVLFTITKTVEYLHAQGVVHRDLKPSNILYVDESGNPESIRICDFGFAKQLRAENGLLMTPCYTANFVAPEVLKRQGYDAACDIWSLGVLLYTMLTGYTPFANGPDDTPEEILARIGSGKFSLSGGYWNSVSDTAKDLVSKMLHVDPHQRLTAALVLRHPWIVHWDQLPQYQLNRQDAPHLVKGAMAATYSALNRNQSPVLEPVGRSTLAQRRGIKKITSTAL
PKBγ, sequence (Q9Y243 whole entry): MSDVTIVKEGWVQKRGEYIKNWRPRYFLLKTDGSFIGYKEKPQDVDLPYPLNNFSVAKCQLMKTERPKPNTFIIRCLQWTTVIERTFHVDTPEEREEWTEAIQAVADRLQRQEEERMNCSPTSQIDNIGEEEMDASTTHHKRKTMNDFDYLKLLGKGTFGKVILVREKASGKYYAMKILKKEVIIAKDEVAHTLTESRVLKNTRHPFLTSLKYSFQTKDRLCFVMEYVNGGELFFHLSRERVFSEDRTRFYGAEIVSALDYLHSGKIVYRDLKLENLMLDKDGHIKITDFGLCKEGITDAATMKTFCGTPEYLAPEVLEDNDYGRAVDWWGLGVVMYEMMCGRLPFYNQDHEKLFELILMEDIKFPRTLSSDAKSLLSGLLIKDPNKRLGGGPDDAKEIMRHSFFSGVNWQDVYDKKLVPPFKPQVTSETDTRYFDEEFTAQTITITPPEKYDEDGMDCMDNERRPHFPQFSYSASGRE
Ron, sequence (Q04912 25-1400): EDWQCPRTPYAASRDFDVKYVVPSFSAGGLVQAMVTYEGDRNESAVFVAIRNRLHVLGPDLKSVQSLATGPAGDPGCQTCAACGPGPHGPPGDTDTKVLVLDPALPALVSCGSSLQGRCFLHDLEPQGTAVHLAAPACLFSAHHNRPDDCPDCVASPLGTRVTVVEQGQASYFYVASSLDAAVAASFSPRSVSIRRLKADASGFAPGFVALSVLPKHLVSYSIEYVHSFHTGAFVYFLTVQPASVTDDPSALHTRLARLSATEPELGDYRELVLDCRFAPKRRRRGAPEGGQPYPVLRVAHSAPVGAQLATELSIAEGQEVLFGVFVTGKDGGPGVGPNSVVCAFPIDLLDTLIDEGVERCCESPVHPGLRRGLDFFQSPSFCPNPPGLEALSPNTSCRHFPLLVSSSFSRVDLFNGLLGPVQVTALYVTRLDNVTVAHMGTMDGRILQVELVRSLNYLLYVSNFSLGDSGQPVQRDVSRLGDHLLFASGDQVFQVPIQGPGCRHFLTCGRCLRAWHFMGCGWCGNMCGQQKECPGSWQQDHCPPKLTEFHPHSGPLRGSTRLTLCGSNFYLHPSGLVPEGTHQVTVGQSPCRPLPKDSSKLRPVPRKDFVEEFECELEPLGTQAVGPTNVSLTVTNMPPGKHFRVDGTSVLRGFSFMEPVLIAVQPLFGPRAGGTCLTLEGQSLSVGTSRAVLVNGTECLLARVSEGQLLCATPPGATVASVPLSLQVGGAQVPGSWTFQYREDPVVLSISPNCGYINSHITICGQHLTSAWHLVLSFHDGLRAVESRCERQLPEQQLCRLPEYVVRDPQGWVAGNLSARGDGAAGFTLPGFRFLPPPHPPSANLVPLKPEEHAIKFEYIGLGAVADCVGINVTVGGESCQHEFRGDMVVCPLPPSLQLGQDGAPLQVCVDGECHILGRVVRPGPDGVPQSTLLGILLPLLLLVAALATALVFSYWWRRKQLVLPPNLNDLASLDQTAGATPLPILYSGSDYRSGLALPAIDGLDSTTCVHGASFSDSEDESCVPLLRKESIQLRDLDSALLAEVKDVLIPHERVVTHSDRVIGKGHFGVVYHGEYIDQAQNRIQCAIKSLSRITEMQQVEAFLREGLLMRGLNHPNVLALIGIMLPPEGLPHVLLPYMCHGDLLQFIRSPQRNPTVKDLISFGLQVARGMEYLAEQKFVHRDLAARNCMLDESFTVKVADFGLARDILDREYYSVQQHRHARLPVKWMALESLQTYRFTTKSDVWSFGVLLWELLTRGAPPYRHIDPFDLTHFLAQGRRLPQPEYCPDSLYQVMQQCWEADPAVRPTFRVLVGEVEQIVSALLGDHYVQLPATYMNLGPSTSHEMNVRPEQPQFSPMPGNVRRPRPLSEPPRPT
MSK1, sequence (O75582 whole entry): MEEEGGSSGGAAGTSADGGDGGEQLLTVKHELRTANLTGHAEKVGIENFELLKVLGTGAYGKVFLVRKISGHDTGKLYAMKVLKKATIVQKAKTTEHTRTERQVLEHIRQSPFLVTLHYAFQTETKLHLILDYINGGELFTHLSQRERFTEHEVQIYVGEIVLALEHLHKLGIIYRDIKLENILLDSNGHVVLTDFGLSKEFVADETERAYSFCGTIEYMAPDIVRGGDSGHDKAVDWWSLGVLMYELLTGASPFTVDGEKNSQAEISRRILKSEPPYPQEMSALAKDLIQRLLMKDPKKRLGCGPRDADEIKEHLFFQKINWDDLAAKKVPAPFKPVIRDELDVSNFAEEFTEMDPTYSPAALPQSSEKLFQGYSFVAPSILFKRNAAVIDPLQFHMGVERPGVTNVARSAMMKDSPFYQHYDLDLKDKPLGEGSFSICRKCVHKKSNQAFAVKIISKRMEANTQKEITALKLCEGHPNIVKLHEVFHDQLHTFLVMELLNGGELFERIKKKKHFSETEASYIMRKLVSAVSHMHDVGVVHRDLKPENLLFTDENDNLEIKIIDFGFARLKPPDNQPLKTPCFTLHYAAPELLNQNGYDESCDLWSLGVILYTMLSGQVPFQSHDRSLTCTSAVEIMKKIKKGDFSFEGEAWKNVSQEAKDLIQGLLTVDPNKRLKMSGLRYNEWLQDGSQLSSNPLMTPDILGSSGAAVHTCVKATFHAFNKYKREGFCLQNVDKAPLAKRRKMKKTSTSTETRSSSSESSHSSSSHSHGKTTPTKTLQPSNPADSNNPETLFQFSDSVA
PAK6, sequence (Q9NQU5 whole entry): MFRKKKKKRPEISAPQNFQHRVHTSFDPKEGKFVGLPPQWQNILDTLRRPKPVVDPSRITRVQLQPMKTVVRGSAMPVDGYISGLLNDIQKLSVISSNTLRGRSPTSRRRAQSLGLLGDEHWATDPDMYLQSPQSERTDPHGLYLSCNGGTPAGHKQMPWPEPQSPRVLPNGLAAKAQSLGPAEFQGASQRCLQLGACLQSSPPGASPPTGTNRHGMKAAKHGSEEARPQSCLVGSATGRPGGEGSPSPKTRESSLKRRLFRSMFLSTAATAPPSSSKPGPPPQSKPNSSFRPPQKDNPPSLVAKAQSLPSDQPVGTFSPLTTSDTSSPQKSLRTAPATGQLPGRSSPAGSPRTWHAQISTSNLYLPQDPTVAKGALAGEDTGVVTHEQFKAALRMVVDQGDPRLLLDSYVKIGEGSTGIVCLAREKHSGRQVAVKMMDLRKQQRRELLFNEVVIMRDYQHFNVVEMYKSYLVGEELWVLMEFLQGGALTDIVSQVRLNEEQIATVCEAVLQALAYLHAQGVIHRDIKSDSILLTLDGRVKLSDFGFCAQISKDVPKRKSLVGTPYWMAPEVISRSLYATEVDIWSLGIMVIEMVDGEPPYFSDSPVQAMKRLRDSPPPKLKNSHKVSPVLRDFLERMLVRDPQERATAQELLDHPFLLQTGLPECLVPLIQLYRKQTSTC

remaining activity at 1 µg/mL (Ron; 1 ug/ml): 135%
remaining activity at 5 µg/mL (Ron; 5 ug/ml): 127%
remaining activity at 25 µg/mL (Ron; 25 ug/ml): 60%
remaining activity at 50 µg/mL (Ron; 50 ug/ml): 69%
remaining activity at 1 µg/mL (CHK1; 1 ug/ml): 121%
remaining activity at 5 µg/mL (CHK1; 5 ug/ml): 126%
remaining activity at 25 µg/mL (CHK1; 25 ug/ml): 142%
remaining activity at 50 µg/mL (CHK1; 50 ug/ml): 149%
remaining activity at 1 µg/mL (MSK1; 1 ug/ml): 114%
remaining activity at 5 µg/mL (MSK1; 5 ug/ml): 92%
remaining activity at 25 µg/mL (MSK1; 25 ug/ml): 31%
remaining activity at 50 µg/mL (Tie2): 35%
remaining activity at 1 µg/mL (PKBγ; 1 ug/ml): 104%
remaining activity at 5 µg/mL (PKBγ; 5 ug/ml): 104%
remaining activity at 25 µg/mL (PKBγ; 25 ug/ml): 12%
remaining activity at 1 µg/mL (DRAK1; 1 ug/ml): 133%
remaining activity at 25 µg/mL (DRAK1; 25 ug/ml): 19%
remaining activity at 50 µg/mL (DRAK1; 50 ug/ml): -5%
remaining activity at 1 µg/mL (PAK6; 1 ug/ml): 105%
remaining activity at 5 µg/mL (PAK6; 5 ug/ml): 94%
remaining activity at 25 µg/mL (PAK6; 25 ug/ml): 14%
remaining activity at 1 µg/mL (Rsk2; 1 ug/ml): 96%
remaining activity at 5 µg/mL (Rsk2; 5 ug/ml): 43%
remaining activity at 25 µg/mL (Rsk2; 25 ug/ml): 3%
remaining activity at 1 µg/mL (Syk; 1 ug/ml): 95%
remaining activity at 5 µg/mL (Syk; 5 ug/ml): 60%
remaining activity at 25 µg/mL (Syk; 25 ug/ml): 32%
remaining activity at 50 µg/mL (Syk; 50 ug/ml): 17%
SMILES: COc1cc(O)c(CC=C(C)C)c(O)c1C(=O)/C=C/c1ccc(O)cc1 [Xanthohumol, xanthohumol]
